Results from ChEMBL document CHEMBL5096165, “Histone deacetylase 2: A potential therapeutic target for cancer and neurodegenerative disorders” (Eur J Med Chem, 2021).

How the values were obtained:
[1] = target: Histone deacetylase 5 (Homo sapiens, UniProt Q9UQL6)
Description: Inhibition of HDAC5 (unknown origin)

[2] = target: T1, Polyamine deacetylase HDAC10 (Homo sapiens, UniProt Q969S8)
T1 sequence (Q969S8 whole entry): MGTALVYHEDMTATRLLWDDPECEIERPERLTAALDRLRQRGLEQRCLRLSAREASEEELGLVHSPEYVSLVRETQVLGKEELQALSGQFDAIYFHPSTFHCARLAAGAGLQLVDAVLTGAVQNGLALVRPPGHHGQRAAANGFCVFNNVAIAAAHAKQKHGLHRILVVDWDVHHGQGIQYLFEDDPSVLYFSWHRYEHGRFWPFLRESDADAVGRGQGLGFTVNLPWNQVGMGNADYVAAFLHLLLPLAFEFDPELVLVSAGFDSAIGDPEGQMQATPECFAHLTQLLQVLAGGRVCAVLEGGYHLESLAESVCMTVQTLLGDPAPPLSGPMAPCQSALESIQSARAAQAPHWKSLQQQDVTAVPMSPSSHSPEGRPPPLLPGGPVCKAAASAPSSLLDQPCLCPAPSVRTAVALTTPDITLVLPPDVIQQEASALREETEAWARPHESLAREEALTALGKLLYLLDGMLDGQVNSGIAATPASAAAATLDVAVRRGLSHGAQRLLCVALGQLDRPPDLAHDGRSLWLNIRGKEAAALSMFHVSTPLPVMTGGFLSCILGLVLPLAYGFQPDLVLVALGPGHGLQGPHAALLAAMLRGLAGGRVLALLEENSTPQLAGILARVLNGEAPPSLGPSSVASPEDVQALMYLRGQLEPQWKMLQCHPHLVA
Description: Inhibition of HDAC10 (unknown origin)

[3] = target: Histone deacetylase 9 (Homo sapiens, UniProt Q9UKV0)
Chain of Histone deacetylase 9 (Q9UKV0 whole entry): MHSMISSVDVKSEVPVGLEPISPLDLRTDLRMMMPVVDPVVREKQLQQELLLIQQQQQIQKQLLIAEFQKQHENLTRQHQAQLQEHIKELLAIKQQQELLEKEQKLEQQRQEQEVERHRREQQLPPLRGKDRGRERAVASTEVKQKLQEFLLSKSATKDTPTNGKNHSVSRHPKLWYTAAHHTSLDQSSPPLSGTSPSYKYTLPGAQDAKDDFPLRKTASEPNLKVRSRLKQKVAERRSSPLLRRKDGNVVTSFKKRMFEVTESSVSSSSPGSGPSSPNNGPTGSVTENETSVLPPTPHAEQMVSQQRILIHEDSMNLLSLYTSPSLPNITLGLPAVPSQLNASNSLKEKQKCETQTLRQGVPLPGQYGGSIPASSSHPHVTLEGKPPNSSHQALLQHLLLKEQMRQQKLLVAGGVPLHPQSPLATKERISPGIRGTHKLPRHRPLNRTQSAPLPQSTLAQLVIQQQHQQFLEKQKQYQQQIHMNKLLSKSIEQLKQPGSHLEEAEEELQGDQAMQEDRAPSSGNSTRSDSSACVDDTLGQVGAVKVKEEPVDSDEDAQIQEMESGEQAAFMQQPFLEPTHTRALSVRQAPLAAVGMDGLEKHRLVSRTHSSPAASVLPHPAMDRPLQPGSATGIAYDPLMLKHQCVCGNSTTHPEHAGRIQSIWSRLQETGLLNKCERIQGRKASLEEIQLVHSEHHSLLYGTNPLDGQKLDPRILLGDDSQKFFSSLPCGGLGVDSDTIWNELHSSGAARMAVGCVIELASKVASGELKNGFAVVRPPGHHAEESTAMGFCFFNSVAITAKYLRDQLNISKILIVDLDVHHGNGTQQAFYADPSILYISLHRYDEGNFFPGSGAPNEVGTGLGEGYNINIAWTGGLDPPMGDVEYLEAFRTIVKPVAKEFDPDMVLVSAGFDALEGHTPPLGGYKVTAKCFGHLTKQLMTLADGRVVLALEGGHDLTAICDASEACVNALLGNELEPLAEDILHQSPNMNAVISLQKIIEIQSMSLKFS
Description: Inhibition of HDAC9 (unknown origin)

Chain of Histone deacetylase 5 (Q9UQL6 whole entry): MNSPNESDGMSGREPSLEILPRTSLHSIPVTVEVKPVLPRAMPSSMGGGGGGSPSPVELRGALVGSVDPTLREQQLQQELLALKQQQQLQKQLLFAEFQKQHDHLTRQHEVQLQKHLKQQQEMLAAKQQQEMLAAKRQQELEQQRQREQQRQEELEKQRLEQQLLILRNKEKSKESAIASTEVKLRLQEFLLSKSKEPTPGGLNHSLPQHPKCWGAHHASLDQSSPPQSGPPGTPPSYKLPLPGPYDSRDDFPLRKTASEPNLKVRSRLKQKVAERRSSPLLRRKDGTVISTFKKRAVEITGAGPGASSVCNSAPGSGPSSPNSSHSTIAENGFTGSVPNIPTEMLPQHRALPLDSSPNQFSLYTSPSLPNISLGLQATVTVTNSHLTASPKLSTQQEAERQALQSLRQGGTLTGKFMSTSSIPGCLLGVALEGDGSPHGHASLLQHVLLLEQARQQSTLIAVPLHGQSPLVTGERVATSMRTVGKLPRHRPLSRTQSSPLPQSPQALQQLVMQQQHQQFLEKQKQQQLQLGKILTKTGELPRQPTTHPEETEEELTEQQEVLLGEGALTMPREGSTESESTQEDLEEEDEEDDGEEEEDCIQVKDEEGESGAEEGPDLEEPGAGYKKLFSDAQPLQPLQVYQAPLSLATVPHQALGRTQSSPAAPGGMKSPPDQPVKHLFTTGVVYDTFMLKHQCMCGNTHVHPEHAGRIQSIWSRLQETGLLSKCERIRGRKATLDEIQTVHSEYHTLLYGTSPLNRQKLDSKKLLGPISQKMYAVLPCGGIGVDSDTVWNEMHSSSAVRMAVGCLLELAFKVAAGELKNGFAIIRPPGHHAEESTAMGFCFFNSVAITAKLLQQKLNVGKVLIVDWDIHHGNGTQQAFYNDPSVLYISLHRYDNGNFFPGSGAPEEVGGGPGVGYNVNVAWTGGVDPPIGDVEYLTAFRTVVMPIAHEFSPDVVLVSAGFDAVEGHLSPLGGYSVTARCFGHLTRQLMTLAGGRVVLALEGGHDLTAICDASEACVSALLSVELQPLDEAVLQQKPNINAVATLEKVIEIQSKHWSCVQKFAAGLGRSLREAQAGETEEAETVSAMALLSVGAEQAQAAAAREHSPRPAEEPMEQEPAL

| IC50 [3] | SMILES | IC50 [1] | IC50 [2] |
| --- | --- | --- | --- |
| – | Cn1cc(CNCC2CCN(c3ncc(C(=O)NO)cn3)CC2)c2ccccc21 [QUISINOSTAT] | 0.00369 µM | 0.00046 µM |
| 50 µM | Cn1cc(-c2ccc(S(=O)(=O)n3ccc(/C=C/C(=O)Nc4ccccc4N)c3)cc2)cn1 [DOMATINOSTAT] | – | 21 µM |
